# According to ChEMBL document CHEMBL5126526, “Non-nucleoside structured compounds with antiviral activity-past 10 years (2010-2020)” (2022):
# Tested on: Influenza A virus
# Experiment: Antiviral activity against influenza A virus (A/California/04/2009 (H1N1pdm)) infected in BALB/c mouse assessed as fold reduction in viral titers in lung homogenates at 20 mg/kg per day, po BID treated 2 hrs prior to viral infection followed by compound redosing at 12 hrs for 6 days
# Assay type: functional
compound,measurement,value
O=C(O)[C@H]1C2CCC(CC2)[C@@H]1Nc1nc(-c2c[nH]c3ncc(F)cc23)ncc1F [PIMODIVIR],fold change (FC),100
